This note sets out measurements from patent US10822348B2, “Inhibitors of Bruton's tyrosine kinase and methods of their use” (JANSSEN PHARMACEUTICA NV, priority 2015, dated 2020).

The target of the assay is unphosphorylated-BTK kinase domain (UP-BTK), GST-tagged human BTK (389-659aa) (Homo sapiens (Human), UniProt Q06187). The assay is described as follows: BTK kinase Lanthascreen binding assay. The following applies: for BTK_I_binding pIC50: negative log of the IC50 in molar, 60 minutes incubation with 50 nM Tracer 236. Here is the method: BTK Kinase Lanthascreen Binding Assay:
A BTK kinase lanthascreen binding assay monitors compound binding to unphosphorylated-BTK kinase domain (UP-BTK), by competing with a fluorescent labeled tracer. […] Data were analyzed using Xlfit™ version 5.3 from ID Business Solutions (Guildford), Microsoft Excel add-in. pIC50 refers to the negative log of the IC50 in molar.

Chain of unphosphorylated-BTK kinase domain (UP-BTK), GST-tagged human BTK (389-659aa) (Q06187 389-659): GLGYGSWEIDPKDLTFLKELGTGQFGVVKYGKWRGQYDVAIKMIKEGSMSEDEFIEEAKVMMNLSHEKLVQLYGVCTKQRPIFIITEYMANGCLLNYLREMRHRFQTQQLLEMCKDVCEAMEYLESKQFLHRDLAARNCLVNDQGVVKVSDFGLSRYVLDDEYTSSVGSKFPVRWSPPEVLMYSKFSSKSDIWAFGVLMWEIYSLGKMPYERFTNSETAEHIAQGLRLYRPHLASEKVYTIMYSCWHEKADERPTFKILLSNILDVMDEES

Take `C=CC(=O)N[C@@H]1COC[C@@H]1NC(=O)c1sc2nccc3c2c1NC(=O)N3c1cnc(Oc2ccccc2)cc1C` (stereo in doubt) [Example 752, N-((*3R,*4S)-4-Acrylamidotetrahydrofuran-3-yl)-5-(*S)-(4-methyl-6-phenoxypyridin-3-yl)-4-oxo-4,5-dihydro-3H-1-thia-3,5,8-triazaacenaphthylene-2-carboxamide]: the “BTK_I_binding pIC50” value was 6.4.
On to `C=CC(=O)N1C[C@@H](F)C[C@@H](NC(=O)c2sc3nccc4c3c2NC(=O)N4c2ccc(Oc3ccccc3)cc2C)C1` [Example 3, N-((3R,5S)-1-Acryloyl-5-fluoropiperidin-3-yl)-5-(2-methyl-4-phenoxyphenyl)-4-oxo-4,5-dihydro-3H-1-thia-3,5,8-triazaacenaphthylene-2-carboxamide], for which the IC50 (read-out: BTK_I_binding pIC50 (converted)) was 12.6 nM.
On to `O=C(CCCC(=O)NCCCOCCOCCOCCCNC(=O)CCCC[C@H]1SC[C@H]2NC(=O)N[C@H]21)NC/C=C/C(=O)N1CCCC(NC(=O)c2sc3nccc4c3c2NC(=O)N4c2ccc(Oc3ccccc3)cn2)C1` (stereo partly drawn) [Example 780, N^1-(15-oxo-19-((3aR,4R,6aS)-2-oxohexahydro-1H-thieno[3,4-d]imidazol-4-yl)-4,7,10-trioxa-14-azanonadecyl)-N^5-((E)-4-oxo-4-(3-(4-oxo-5-(5-phenoxypyridin-2-yl)-4,5-dihydro-3H-1-thia-3,5,8-triazaacenaphthylene-2-carboxamido)piperidin-1-yl)but-2-en-1-yl)glutaramide], for which the “BTK_I_binding pIC50” value was 6.3.
